Each structure is given as a SMILES string.

Assay [1] addresses T1, PI3K alpha (Homo sapiens, UniProt P42336).
T1 construct: p85(iSH2) fusion partner (see partner chain) (N); His tag (C); made in house; host or cells: baculovirus; Tn5 (Trichoplusia ni) or TiniPro insect cells
The assay can be described thus: PI3K alpha kinase assay (Kinase-Glo luminescence). It is filed as biochemical. The procedure, abridged:
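Luminescent ATP-depletion assay (Kinase-Glo) with 10 nM PI3Kα and 10 μg/mL phosphatidylinositol as lipid substrate at 1 μM ATP. Incubation lasts 60 min at room temperature.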
On the technique in general: In Kinase-Glo more light means more ATP remaining.

The test system of assay [2] is PKB Ser473 phosphorylation in Rat1-myr-HA-p110 alpha cells. The assay can be described thus: Reverse protein array assay, PKB Ser473 phosphorylation in Rat1-myr-p110 alpha cells. The format is cell-based. Conditions: 0.5 h, pAkt Ser473, 30 minutes compound incubation, read-out: p-PKB IC50. The essentials:
(§1)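 Cells: Rat1-myr-HA-p110 alpha/beta/delta, seeded ≥20 h. Lysis on ice 10 min; reverse-phase protein array, 4 lysate dilutions; fluorescence read, relative intensity.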

The subject of assay [3] is PKB Ser473 phosphorylation in Rat1-myr-HA-p110 delta cells. Put plainly: Reverse protein array assay, PKB Ser473 phosphorylation in Rat1-myr-p110 delta cells. It is filed as cell-based. Conditions: read-out: p-PKB IC50. The procedure, abridged:
as §1

For assay [4], the system named is S6 Ribosomal Protein phosphorylation Ser235/236 in TSC1 null mouse embryo fibroblast (MEF) cells. Put plainly: Reverse protein array assay, S6 Ribosomal Protein phosphorylation Ser235/236 in TSC1 null MEF cells. The following applies: 1 h, pS6 ribosomal protein Ser235/236, 60 minutes incubation, read-out: p-S6 IC50. It is filed as cell-based. The essentials: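 TSC1−/− MEFs, seeded and held ≥20 h at 37 °C/5% CO2, were exposed to 8-step serial compound dilutions (0.02% DMSO final; DMSO vehicle control) for 60 min at 37 °C. Cells were then lysed on ice for 10 min and lysates spotted onto reverse protein array chips.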

T1 sequence (P42336 with tags, fused parts or gaps limits assumed): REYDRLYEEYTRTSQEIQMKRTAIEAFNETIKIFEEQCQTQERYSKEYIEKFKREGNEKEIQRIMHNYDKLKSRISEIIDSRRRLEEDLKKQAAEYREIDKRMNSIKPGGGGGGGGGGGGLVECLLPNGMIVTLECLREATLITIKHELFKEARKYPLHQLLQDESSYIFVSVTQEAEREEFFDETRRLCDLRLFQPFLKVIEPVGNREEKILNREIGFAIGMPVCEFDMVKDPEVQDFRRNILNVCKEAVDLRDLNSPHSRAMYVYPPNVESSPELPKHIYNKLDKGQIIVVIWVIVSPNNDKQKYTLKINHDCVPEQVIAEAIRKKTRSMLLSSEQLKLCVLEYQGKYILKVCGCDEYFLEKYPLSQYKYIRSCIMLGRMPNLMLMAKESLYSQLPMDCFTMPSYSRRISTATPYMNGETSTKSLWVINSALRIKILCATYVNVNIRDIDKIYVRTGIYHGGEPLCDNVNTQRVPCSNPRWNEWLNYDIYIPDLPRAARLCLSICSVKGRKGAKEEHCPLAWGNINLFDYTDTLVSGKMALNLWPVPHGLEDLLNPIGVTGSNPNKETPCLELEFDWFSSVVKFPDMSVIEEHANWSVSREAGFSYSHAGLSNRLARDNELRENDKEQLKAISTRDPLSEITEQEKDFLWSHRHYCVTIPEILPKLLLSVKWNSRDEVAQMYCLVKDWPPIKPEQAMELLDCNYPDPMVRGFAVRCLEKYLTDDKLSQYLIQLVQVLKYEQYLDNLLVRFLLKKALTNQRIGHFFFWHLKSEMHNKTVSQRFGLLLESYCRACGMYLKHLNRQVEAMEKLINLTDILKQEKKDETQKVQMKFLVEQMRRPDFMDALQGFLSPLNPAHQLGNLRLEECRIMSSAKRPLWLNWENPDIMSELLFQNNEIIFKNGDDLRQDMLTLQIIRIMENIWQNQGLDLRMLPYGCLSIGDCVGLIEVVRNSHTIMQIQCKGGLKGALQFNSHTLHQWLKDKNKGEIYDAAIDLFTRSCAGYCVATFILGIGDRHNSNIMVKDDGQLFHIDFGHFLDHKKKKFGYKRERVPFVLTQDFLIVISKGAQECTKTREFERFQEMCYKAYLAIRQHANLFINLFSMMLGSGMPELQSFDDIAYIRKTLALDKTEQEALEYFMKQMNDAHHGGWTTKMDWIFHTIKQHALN

A word on the IC50: it is the concentration that gives 50% inhibition. With `COC(=O)c1ccc(-c2ccc3ncc4c(c3c2)n(-c2cn(C)nc2C)c(=O)n4C)cn1` [Example 100, 5-[1-(1,3-Dimethyl-1H-pyrazol-4-yl)-3-methyl-2-oxo-2,3-dihydro-1H-imidazo[4,5-c]quinolin-8-yl]-pyridine-2-carboxylic acid methyl ester], the IC50 in assay [1] stood at 18 nM; in assay [2], 12 nM; in assay [3], 43 nM; in assay [4] it was 4 nM.

As for `CCOc1ncc(-c2ccc3ncc4c(c3c2)n(-c2cn(C)nc2C)c(=O)n4C)cc1NC(C)=O` [Example 65, N-{5-[1-(1,3-Dimethyl-1H-pyrazol-4-yl)-3-methyl-2-oxo-2,3-dihydro-1H-imidazo[4,5-c]quinolin-8-yl]-2-ethoxy-pyridin-3-yl}-acetamide], the IC50 in assay [1] was determined as 460 nM; in assay [2] it was 47 nM; in assay [3] it was 102 nM; in assay [4] it was 66 nM.

`Cc1nn(C)cc1-n1c(=O)n(C)c2cnc3ccc(-c4cnc5ccccc5c4)cc3c21` [Example 38, 1-(1,3-Dimethyl-1H-pyrazol-4-yl)-3-methyl-8-quinolin-3-yl-1,3-dihydro-imidazo[4,5-c]quinolin-2-one]: the IC50 is 8 nM in assay [1], 7 nM in assay [2], 19 nM in assay [3] and 3 nM in assay [4].

In the case of `CCOc1cncc(-c2ccc3ncc4c(c3c2)n(-c2cn(CC(=O)N(C)C)nc2C)c(=O)n4C)c1` [Example 56.2, 2-{4-[8-(5-Ethoxy-pyridin-3-yl)-3-methyl-2-oxo-2,3-dihydro-imidazo[4,5-c]quinolin-1-yl]-3-methyl-pyrazol-1-yl}-N,N-dimethyl-acetamide], the IC50 in assay [1] is 25 nM; in assay [2] it was 303 nM; in assay [3], 468 nM; in assay [4], 10 nM.

Regarding `Cc1cnn(C)c1-n1c(=O)n(C)c2cnc3ccc(-c4cncc(OC(C)C)c4)cc3c21` [Example 58.3, 1-(2,4-Dimethyl-2H-pyrazol-3-yl)-8-(5-isopropoxy-pyridin-3-yl)-3-methyl-1,3-dihydro-imidazo[4,5-c]quinolin-2-one], the IC50 amounted to 236 nM in assay [1], 383 nM in assay [2], 577 nM in assay [3] and 174 nM in assay [4].

Consider `CNc1ncc(-c2ccc3ncc4c(c3c2)n(-c2cn(C(C)C)nc2C)c(=O)n4C)cc1F` [Example 141.3, 8-(5-Fluoro-6-methylamino-pyridin-3-yl)-1-(1-isopropyl-3-methyl-1H-pyrazol-4-yl)-3-methyl-1,3-dihydro-imidazo[4,5-c]quinolin-2-one], for which the IC50 worked out at 21 nM in assay [1], 10 nM in assay [2], 35 nM in assay [3] and 2 nM in assay [4].

With `Cn1cc(-n2c(=O)n(C)c3cnc4ccc(-c5cncc(C(C)(C)C#N)c5)cc4c32)c(Cl)n1` [Example 220.3, 2-{5-[1-(3-Chloro-1-methyl-1H-pyrazol-4-yl)-3-methyl-2-oxo-2,3-dihydro-1H-imidazo[4,5-c]quinolin-8-yl]-pyridin-3-yl}-2-methyl-propionitrile], the IC50 in assay [1] is 5 nM; in assay [2], 6 nM; in assay [3], 13 nM; in assay [4], less than 0.5 nM.

As to `Cc1nn(C)cc1-n1c(=O)n(C)c2cnc3ccc(-c4cnc5c(ccn5C)c4)cc3c21` [Example 116, 1-(1,3-Dimethyl-1H-pyrazol-4-yl)-3-methyl-8-(1-methyl-1H-pyrrolo[2,3-b]pyridin-5-yl)-1,3-dihydro-imidazo[4,5-c]quinolin-2-one], the IC50 in assay [1] is 12 nM; in assay [2], less than 5 nM; in assay [3] it was 34 nM; in assay [4] it was 6 nM.

As for `CCOc1ccc(-c2ccc3ncc4c(c3c2)n(-c2cn(CC)nc2C)c(=O)n4C)cc1OC` [Example 29.1, 8-(4-Ethoxy-3-methoxy-phenyl)-1-(1-ethyl-3-methyl-1H-pyrazol-4-yl)-3-methyl-1,3-dihydro-imidazo[4,5-c]quinolin-2-one], the IC50 worked out at 24 nM in assay [1], 5 nM in assay [2], 59 nM in assay [3] and 9 nM in assay [4].

Take `Cc1nn(C)cc1-n1c(=O)n(C)c2cnc3ccc(-c4cnc5ccn(C)c5c4)cc3c21` [Example 129, 1-(1,3-Dimethyl-1H-pyrazol-4-yl)-3-methyl-8-(1-methyl-1H-pyrrolo[3,2-b]pyridin-6-yl)-1,3-dihydro-imidazo[4,5-c]quinolin-2-one]: the IC50 in assay [1] came out at 12 nM; in assay [2] it was 21 nM; in assay [3], 46 nM; in assay [4], 1 nM.

For `Cc1nn(C)cc1-n1c(=O)n(C)c2cnc3ccc(-c4ccc(N5CCNCC5)nc4)cc3c21` [Example 126, 1-(1,3-Dimethyl-1H-pyrazol-4-yl)-3-methyl-8-(6-piperazin-1-yl-pyridin-3-yl)-1,3-dihydro-imidazo[4,5-c]quinolin-2-one], the IC50 in assay [1] amounted to 51 nM; in assay [2], 141 nM; in assay [3], 266 nM; in assay [4], 5.33 nM.

In the case of `CCn1cc(-n2c(=O)n(C)c3cnc4ccc(-c5cnc(COC)c(OC(C)C)c5)cc4c32)c(C)n1` [Example 191.2, 1-(1-Ethyl-3-methyl-1H-pyrazol-4-yl)-8-(5-isopropoxy-6-methoxymethyl-pyridin-3-yl)-3-methyl-1,3-dihydro-imidazo[4,5-c]quinolin-2-one], the IC50 in assay [1] stood at 13 nM; in assay [2], 27 nM; in assay [3], 88 nM; in assay [4] it was 5 nM.

As to `CO[C@@H]1CCN(c2ccc(-c3ccc4ncc5c(c4c3)n(-c3cn(C)nc3C)c(=O)n5C)cn2)C1` [Example 213.1, 1-(1,3-Dimethyl-1H-pyrazol-4-yl)-8-[6-((R)-3-methoxy-pyrrolidin-1-yl)-pyridin-3-yl]-3-methyl-1,3-dihydro-imidazo[4,5-c]quinolin-2-one], the IC50 was 462 nM in assay [1], 125 nM in assay [2], 631 nM in assay [3] and 49.4 nM in assay [4].

In the case of `CCn1cc(-n2c(=O)n(C)c3cnc4ccc(-c5ccc(OC)nc5)cc4c32)c(C)n1` [Example 2.7, 1-(1-Ethyl-3-methyl-1H-pyrazol-4-yl)-8-(6-methoxy-pyridin-3-yl)-3-methyl-1,3-dihydro-imidazo[4,5-c]quinolin-2-one], the IC50 was 24 nM in assay [1], 28 nM in assay [2], 62 nM in assay [3] and 6 nM in assay [4].

`CCOc1cc(-c2ccc3ncc4c(c3c2)n(-c2cn(C(C)C)nc2C)c(=O)n4C)cnc1COC` [Example 197.2, 8-(5-Ethoxy-6-methoxymethyl-pyridin-3-yl)-1-(1-isopropyl-3-methyl-1H-pyrazol-4-yl)-3-methyl-1,3-dihydro-imidazo[4,5-c]quinolin-2-one]: the IC50 amounted to 41 nM in assay [1], 77 nM in assay [2], 336 nM in assay [3] and 7 nM in assay [4].

As to `CCOc1ccc(-c2ccc3ncc4c(c3c2)n(-c2c(C)nn(C)c2C)c(=O)n4C)cn1` [Example 3.3, 8-(6-Ethoxy-pyridin-3-yl)-3-methyl-1-(1,3,5-trimethyl-1H-pyrazol-4-yl)-1,3-dihydro-imidazo[4,5-c]quinolin-2-one], the IC50 in assay [1] turned out to be 146 nM; in assay [2], 50 nM; in assay [3], 927 nM; in assay [4] it was 255 nM.

For `CCN1C(=O)OCc2ncc(-c3ccc4ncc5c(c4c3)n(-c3cn(C)nc3C)c(=O)n5C)cc21` [Example 237, 1-(1,3-Dimethyl-1H-pyrazol-4-yl)-8-(1-ethyl-2-oxo-1,4-dihydro-2H-pyrido[3,2-d][1,3]oxazin-7-yl)-3-methyl-1,3-dihydro-imidazo[4,5-c]quinolin-2-one], the IC50 worked out at 8 nM in assay [1], 18 nM in assay [2], 49 nM in assay [3] and 6 nM in assay [4].

As for `Cc1nn(C)cc1-n1c(=O)n(C)c2cnc3ccc(-c4cncc(N(C)C)c4)cc3c21` [Example 178, 8-(5-Dimethylamino-pyridin-3-yl)-1-(1,3-dimethyl-1H-pyrazol-4-yl)-3-methyl-1,3-dihydro-imidazo[4,5-c]quinolin-2-one], the IC50 is 82 nM in assay [1], 20 nM in assay [2], 85 nM in assay [3] and 2 nM in assay [4].

With `CCn1c(=O)n(-c2cn(C)nc2C)c2c3cc(-c4cncc(N)c4)ccc3ncc21` [Example 245, 8-(5-Amino-pyridin-3-yl)-1-(1,3-dimethyl-1H-pyrazol-4-yl)-3-ethyl-1,3-dihydro-imidazo[4,5-c]quinolin-2-one], the IC50 in assay [1] was determined as 22 nM; in assay [2], 730 nM; in assay [3], 719 nM; in assay [4] it was 43 nM.

As to `CCNc1cc(-c2ccc3ncc4c(c3c2)n(-c2cn(C)nc2Cl)c(=O)n4C)cnc1C` [Example 87.2, 1-(3-Chloro-1-methyl-1H-pyrazol-4-yl)-8-(5-ethylamino-6-methyl-pyridin-3-yl)-3-methyl-1,3-dihydro-imidazo[4,5-c]quinolin-2-one], the IC50 in assay [1] is 30 nM; in assay [2], less than 5 nM; in assay [3] it was less than 5 nM; in assay [4] it was 1 nM.
